Measured values as given in ChEMBL document CHEMBL1201862, “PubChem BioAssay data set” (2004).
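All cell lines were grown in 96-well plates and treated with compound for 48 hours. At the GI50, growth is halved.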 Calls of active or inactive are those of the source. Rule as the data show it: active = GI50 up to about 1.1 µM and inactive = higher.

Tests used:
Assay in all cases: inhibition of tumour cell growth, NCI panel, 48 h
MDA-MB-231 = system: MDA-MB-231
LXFL 529 = system: LXFL 529
DLD-1 = system: DLD-1
MDA-MB-435 = system: MDA-MB-435
A498 = system: A498
UACC-257 = system: UACC-257
NCI-H23 = system: NCI-H23
DMS-114 = system: DMS-114
MCF7 = system: MCF7
MOLT-4 = system: MOLT-4
SNB-75 = system: SNB-75
PC-3 = system: PC-3
NCI-H226 = system: NCI-H226
UACC-62 = system: UACC-62
DU-145 = system: DU-145
MDA-N = system: MDA-N
NCI/ADR-RES = system: NCI/ADR-RES
Malme-3M = system: Malme-3M
K562 = system: K562
HOP-18 = system: HOP-18

Compound	GI50 (MDA-MB-231)	GI50 (LXFL 529)	GI50 (DLD-1)	GI50 (MDA-MB-435)	GI50 (A498)	GI50 (UACC-257)	GI50 (NCI-H23)	GI50 (DMS-114)	GI50 (MCF7)	GI50 (MOLT-4)	GI50 (SNB-75)	GI50 (PC-3)	GI50 (NCI-H226)	GI50 (UACC-62)	GI50 (DU-145)	GI50 (MDA-N)	GI50 (NCI/ADR-RES)	GI50 (Malme-3M)	GI50 (K562)	GI50 (HOP-18)
COc1ccc(/C=c2/s/c(=C(\C#N)c3nc4ccccc4[nH]3)n(-c3ccccc3)c2=O)cc1	18.7 µM (inactive)	2.32 µM (inactive)	> 100 µM (inactive)	31.8 µM (inactive)	24.8 µM (inactive)	> 100 µM (inactive)	22.6 µM (inactive)	91 µM (inactive)	45.1 µM (inactive)	53.6 µM (inactive)	> 26.4 µM (inactive)	24 µM (inactive)	16.9 µM (inactive)	> 28.3 µM (inactive)	94.6 µM (inactive)	30.8 µM (inactive)	5.06 µM (inactive)	> 42.4 µM (inactive)	> 100 µM (inactive)	25 µM (inactive)
C/C(=N\N=C(/S)N1CCCCCC1)c1cccc[n+]1[O-]	7.59 µM (inactive)	0.348 µM (active)	0.0279 µM (active)	9.57 µM (inactive)	21.6 µM (inactive)	1.33 µM (inactive)	5.82 µM (inactive)	0.0198 µM (active)	2.64 µM (inactive)	0.129 µM (active)	10.5 µM (inactive)	–	7.69 µM (inactive)	1.88 µM (inactive)	31.5 µM (inactive)	6.47 µM (inactive)	–	1.6 µM (inactive)	0.0883 µM (active)	18.2 µM (inactive)
